The values below come from PubChem BioAssay (NCI).

SMILES strings stand for the structures. Where “and” joins values, the source holds several entries; their conditions need not be identical. Equal entries are not always repeated.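 Grown in 96-well plates, cells were treated for 48 hours with each compound at five concentrations. Insufficient inhibition: endpoint recorded as highest concentration tested. GI50 is the concentration that inhibits growth by half. TGI marks complete inhibition of growth.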

Test systems include LXFL 529 NSCLC; SR leukemia; DMS 273 small cell lung; LOX IMVI melanoma; OVCAR-8 ovarian; A549 NSCLC; HL-60(TB) leukemia; MCF7 breast; BT-549 breast; HS 578T breast.
Holding throughout (assay): NCI-60 cell line screen, 48 h

With `CO[C@@]1(c2ccccc2)O[C@H]2OCCC2[C@H]1c1ccc(Cl)cc1` (some centres not stated), the TGI in the experiment on LXFL 529 NSCLC is > 100 µM; with SR leukemia, > 100 µM; in the experiment with DMS 273 small cell lung it was > 100 µM; with LOX IMVI melanoma, 77.4 µM; in the experiment on OVCAR-8 ovarian, > 100 µM; with A549 NSCLC it was > 100 µM.
For `C=C1C[C@@H]2C[C@@H](C)CC(O)[C@]2(CCCN)C1O` (some centres not stated), the TGI in the experiment with LXFL 529 NSCLC, in the experiment with SR leukemia, in the experiment on DMS 273 small cell lung, in the experiment on LOX IMVI melanoma, with OVCAR-8 ovarian and in the experiment with HL-60(TB) leukemia was > 100 µM each time. For the same compound, the TGI in the experiment with A549 NSCLC was > 100 µM.
In the case of `COc1ccc(OC(C)C(=O)O)c2c(=O)ccccc12` (configuration not stated), the TGI in the experiment on LXFL 529 NSCLC, with SR leukemia, in the experiment on DMS 273 small cell lung, with LOX IMVI melanoma, in the experiment with OVCAR-8 ovarian and in the experiment on HL-60(TB) leukemia was > 100 µM throughout. In the experiment with A549 NSCLC, the TGI is > 100 µM.
For the compound `CCC(CO)Nc1nc2c(c(=O)n(C)c(=O)n2C)n1CCO` (configuration not stated), the TGI in the experiment with LXFL 529 NSCLC, in the experiment with SR leukemia, with DMS 273 small cell lung, with OVCAR-8 ovarian and in the experiment with A549 NSCLC was > 100 µM throughout.
As to `COc1cc(/C=N/N=C(\N)NO)c([N+](=O)[O-])cc1OC`, the TGI with LXFL 529 NSCLC is > 100 µM; in the experiment with SR leukemia, > 100 µM; in the experiment with DMS 273 small cell lung, > 100 µM; in the experiment with LOX IMVI melanoma it was 83.5 µM; in the experiment with OVCAR-8 ovarian, > 100 µM; with HL-60(TB) leukemia, 56 µM. Besides, in the experiment with A549 NSCLC, the TGI was > 100 µM.
As for `NC(=O)c1ccc(Cl)c([N+](=O)[O-])c1`, the TGI with LXFL 529 NSCLC, with DMS 273 small cell lung, with LOX IMVI melanoma, in the experiment with OVCAR-8 ovarian, in the experiment on HL-60(TB) leukemia and in the experiment on A549 NSCLC was > 100 µM throughout.
For the compound `COC(=O)CC[C@]12C[C@]13CC[C@]1(C)C4C(C)C[C@]5(CC(C)C(=O)O5)OC4CC1(C)C3CCC2C(C)(C)O` (some centres not stated), the TGI was > 100 µM with LXFL 529 NSCLC; > 100 µM with SR leukemia; > 100 µM with DMS 273 small cell lung; > 100 µM with LOX IMVI melanoma; > 100 µM with OVCAR-8 ovarian; 66.1 µM in the experiment on HL-60(TB) leukemia. Moreover, in the experiment with A549 NSCLC, the TGI is > 100 µM.
`O=c1c2cc3ccccc3n2c(=O)c2cc3ccccc3n12`: the TGI with LXFL 529 NSCLC, in the experiment on SR leukemia, in the experiment on DMS 273 small cell lung, in the experiment on LOX IMVI melanoma, with OVCAR-8 ovarian and in the experiment on HL-60(TB) leukemia was > 100 µM throughout. Moreover, the TGI with A549 NSCLC was > 100 µM.
Consider `CC(=O)[O-].N.N.N.N.[Co+3].[O-][Cl+3]([O-])([O-])[O-].[OH3+]`, for which the GI50 in the experiment with LXFL 529 NSCLC, in the experiment on DMS 273 small cell lung, in the experiment with LOX IMVI melanoma, in the experiment on OVCAR-8 ovarian, with HL-60(TB) leukemia and in the experiment with A549 NSCLC was > 100 µM each time. The TGI in the experiment on LXFL 529 NSCLC, in the experiment on DMS 273 small cell lung, in the experiment with LOX IMVI melanoma, with OVCAR-8 ovarian, with HL-60(TB) leukemia and in the experiment with A549 NSCLC was > 100 µM in each case.
As for `C[CH2][Sn]([CH2]C)([O]C(=O)c1ccc(F)cc1)[O]C(=O)c1ccc(F)cc1`, the GI50 in the experiment with LXFL 529 NSCLC was 7.84 µM; with DMS 273 small cell lung, 55.6 µM; with LOX IMVI melanoma it was 18 µM; with OVCAR-8 ovarian, > 52.9 µM; in the experiment with HL-60(TB) leukemia, 60.5 µM; in the experiment on A549 NSCLC it was > 100 µM. Also, the TGI was 21.1 µM in the experiment with LXFL 529 NSCLC; > 100 µM with DMS 273 small cell lung; 37.9 µM in the experiment with LOX IMVI melanoma; > 79.2 µM in the experiment on OVCAR-8 ovarian; > 100 µM with HL-60(TB) leukemia; > 100 µM with A549 NSCLC.
`CC1=CCCC2C(C=O)(C1)CC(C)C2(CO)CC/C(=C/CO)CO` (configuration not stated): the TGI with LXFL 529 NSCLC, in the experiment with DMS 273 small cell lung, with LOX IMVI melanoma, with OVCAR-8 ovarian and in the experiment with A549 NSCLC was > 100 µM in each case.
As for `CC1c2[nH]c3ccccc3c2CCN1O` (configuration not stated), the TGI in the experiment with LXFL 529 NSCLC, with DMS 273 small cell lung, with LOX IMVI melanoma, with OVCAR-8 ovarian, with HL-60(TB) leukemia and in the experiment on A549 NSCLC was > 100 µM in each case.
As for `C=C1C(OC(C)=O)CC(OC(C)=O)C2(C)C(OC(C)=O)C(OC(C)=O)C3=C(C)C(OC(=O)/C=C/c4ccccc4)CC(C(OC(C)=O)C12)C3(C)C` (configuration not stated), the TGI in the experiment with LXFL 529 NSCLC, in the experiment with SR leukemia, in the experiment on DMS 273 small cell lung, with LOX IMVI melanoma, in the experiment on OVCAR-8 ovarian and in the experiment on HL-60(TB) leukemia was > 100 µM throughout. In addition, the TGI in the experiment with A549 NSCLC was > 100 µM.
As to `CCC1=C(CC2NCCc3ccccc32)CC2c3cc(OC)c(OC)cc3CCN2C1` (configuration not stated), the TGI was > 100 µM with LXFL 529 NSCLC; 8.77 µM and 3.89 µM in the experiment with SR leukemia; 3.02 µM with DMS 273 small cell lung; 10.6 µM and 2.3 µM in the experiment with MCF7 breast; 15.5 µM and 5.68 µM with LOX IMVI melanoma; 26.5 µM and 19.2 µM with OVCAR-8 ovarian. Further, the TGI with BT-549 breast is 21.2 µM and 9.89 µM; in the experiment with HL-60(TB) leukemia, 10.7 µM and 5.01 µM; with HS 578T breast, 12.8 µM and 3.73 µM; in the experiment on A549 NSCLC it was 19.9 µM and 4.88 µM. Moreover, the GI50 in the experiment on SR leukemia was 2.86 µM; in the experiment on MCF7 breast, 2.95 µM; with LOX IMVI melanoma it was 4.4 µM; with OVCAR-8 ovarian, 3.93 µM; in the experiment on BT-549 breast, 9.07 µM; with HL-60(TB) leukemia it was 2.89 µM. The GI50 is 3.07 µM in the experiment on HS 578T breast and 3.49 µM with A549 NSCLC.
Take `COc1cc(C(=O)c2cocc2C(=O)c2ccc3c(c2)OCO3)cc(OC)c1OC`: the TGI is > 31.6 µM in the experiment on LXFL 529 NSCLC; > 56.2 µM in the experiment with SR leukemia; > 100 µM in the experiment on DMS 273 small cell lung; > 100 µM in the experiment with MCF7 breast; 30 µM in the experiment with LOX IMVI melanoma; 30 µM in the experiment on OVCAR-8 ovarian. The TGI in the experiment with BT-549 breast is 0.552 µM; in the experiment with HL-60(TB) leukemia, 2.06 µM; with HS 578T breast it was 5.27 µM; in the experiment on A549 NSCLC, > 68 µM.
As for `O=C1NC2C(O)CCCCC2C12CCCCC2` (configuration not stated), the TGI in the experiment on LXFL 529 NSCLC, in the experiment on DMS 273 small cell lung, in the experiment on LOX IMVI melanoma, in the experiment on OVCAR-8 ovarian, in the experiment on HL-60(TB) leukemia and in the experiment on A549 NSCLC was > 100 µM each time.
Turning to `CC(=O)Oc1ccc2c(c1)C(=O)c1nc(C)c(C)nc1C2=O`, the TGI is > 100 µM in the experiment on LXFL 529 NSCLC; > 89 µM in the experiment with SR leukemia; > 100 µM in the experiment with DMS 273 small cell lung; > 100 µM in the experiment with LOX IMVI melanoma; > 100 µM in the experiment with OVCAR-8 ovarian; 56.4 µM in the experiment with HL-60(TB) leukemia. In the experiment on A549 NSCLC, the TGI was > 100 µM.
With `CC[PH+](CC)CC.[Cl][Au]`, the GI50 was 0.481 µM in the experiment with LXFL 529 NSCLC; 4.77 µM in the experiment on DMS 273 small cell lung; 1.4 µM with LOX IMVI melanoma; 2.19 µM with OVCAR-8 ovarian; < 0.0469 µM with HL-60(TB) leukemia; 15.5 µM with A549 NSCLC. Further, the TGI with LXFL 529 NSCLC was 1.07 µM; in the experiment on DMS 273 small cell lung it was 22.1 µM; in the experiment on LOX IMVI melanoma it was 2.91 µM; in the experiment on OVCAR-8 ovarian, 5.21 µM; in the experiment on HL-60(TB) leukemia, 0.278 µM; in the experiment on A549 NSCLC, 44.4 µM.
Regarding `Nc1c2ccccc2nc2c(C(=O)Nc3ccc(S(N)(=O)=O)cc3)cccc12`, the TGI in the experiment on LXFL 529 NSCLC, with DMS 273 small cell lung, in the experiment with LOX IMVI melanoma, in the experiment on OVCAR-8 ovarian and with A549 NSCLC was > 100 µM in each case.
On to `CCC[CH2][Sn]1([CH2]CCC)[S]CC[N]1S(=O)(=O)c1ccc(C)cc1`, for which the GI50 was 0.33 µM in the experiment on LXFL 529 NSCLC; 1.65 µM in the experiment with DMS 273 small cell lung; 1.63 µM in the experiment with OVCAR-8 ovarian; 0.581 µM with HL-60(TB) leukemia; 3.15 µM in the experiment with A549 NSCLC. For the same compound, the TGI in the experiment with LXFL 529 NSCLC is 1.12 µM; in the experiment on DMS 273 small cell lung, 3.16 µM; with OVCAR-8 ovarian it was 4.16 µM; with HL-60(TB) leukemia it was 2.73 µM; in the experiment on A549 NSCLC it was 9.32 µM.
